According to patent US6525001B1, “Substituted pyrimidine and pyridine herbicides” (Mid-American Commercialization Corporation, priority 1997, dated 2003):

How the values were obtained:
Assay in all cases: Test B pre-/postemergence
Type in all cases: in vivo
Design in all cases: key: 0 is no effect; 10 is complete control
[1] = tested on: giant foxtail (Setaria faberii)
How it was run: (§1)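 Compounds in a surfactant-containing, non-phytotoxic solvent blend are applied to freshly planted seed (preemergence) and, concurrently, to seedlings of 2 to 18 cm at 1–4 leaves (postemergence). Plants stay in the greenhouse twelve to sixteen days and are then scored visually from 0 (no effect) to 10 (complete control).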

[2] = tested on: broadleaf signalgrass (Brachiaria decumbens)
How it was run: as §1

[3] = tested on: wheat (Triticum aestivum)
How it was run: as §1

[4] = tested on: cocklebur (Xanthium strumarium)
How it was run: as §1

[5] = tested on: blackgrass (Alopecurus myosuroides)
How it was run: as §1

[6] = tested on: rape (Brassica napus)
How it was run: as §1

[7] = tested on: corn (Zea mays)
How it was run: as §1

[8] = tested on: pigweed (Amaranthus retroflexus)
How it was run: as §1

[9] = tested on: velvetleaf (Abutilon theophrasti)
How it was run: as §1

[10] = tested on: sugar beet (Beta vulgaris)
How it was run: as §1

[11] = tested on: momingglory (Ipomoea hederacea)
How it was run: as §1

[12] = tested on: soybean (Glycine max)
How it was run: as §1

[13] = tested on: crabgrass (Digitaria sanguinalis)
How it was run: as §1

[14] = tested on: bedstraw (Galium aparine)
How it was run: as §1

SMILES: Cc1cnc(-c2ccc(C(F)(F)F)cc2)nc1Cn1ccc(C(F)(F)F)n1 [compound 9]
- Plant response rating, Giant foxtail ([1]; Rate 62 g/ha, Postemergence): 4
- Giant foxtail plant response rating ([1]; Rate 62 g/ha, Preemergence): 10
- Plant response rating, Giant foxtail ([1]; Rate 125 g/ha, Postemergence): 5
- Giant foxtail plant response rating ([1]; Rate 125 g/ha, Preemergence): 10
- Plant response rating, Giant foxtail ([1]; Rate 250 g/ha, Postemergence): 9
- Plant response rating, Giant foxtail ([1]; Rate 250 g/ha, Preemergence): 10
- Plant response rating, Giant foxtail ([1]; Rate 500 g/ha, Postemergence): 9
- Plant response rating, Giant foxtail ([1]; Rate 500 g/ha, Preemergence): 10
- Plant response rating, B. signalgrass ([2]; Rate 62 g/ha, Postemergence): 5
- B. signalgrass plant response rating ([2]; Rate 62 g/ha, Preemergence): 8
- Plant response rating, B. signalgrass ([2]; Rate 125 g/ha, Postemergence): 8
- B. signalgrass plant response rating ([2]; Rate 125 g/ha, Preemergence): 9
- Plant response rating, B. signalgrass ([2]; Rate 250 g/ha, Postemergence): 9
- Plant response rating, B. signalgrass ([2]; Rate 250 g/ha, Preemergence): 10
- Plant response rating, B. signalgrass ([2]; Rate 500 g/ha, Postemergence): 9
- Plant response rating, B. signalgrass ([2]; Rate 500 g/ha, Preemergence): 10
- Plant response rating, Wheat ([3]; Rate 62 g/ha, Postemergence): 3
- Wheat plant response rating ([3]; Rate 62 g/ha, Preemergence): 1
- Plant response rating, Wheat ([3]; Rate 125 g/ha, Postemergence): 3
- Wheat plant response rating ([3]; Rate 125 g/ha, Preemergence): 2
- Plant response rating, Wheat ([3]; Rate 250 g/ha, Postemergence): 4
- Plant response rating, Wheat ([3]; Rate 250 g/ha, Preemergence): 5
- Plant response rating, Wheat ([3]; Rate 500 g/ha, Postemergence): 6
- Plant response rating, Wheat ([3]; Rate 500 g/ha, Preemergence): 6
- Plant response rating, Cocklebur ([4]; Rate 62 g/ha, Postemergence): 9
- Cocklebur plant response rating ([4]; Rate 62 g/ha, Preemergence): 0
- Plant response rating, Cocklebur ([4]; Rate 125 g/ha, Postemergence): 9
- Cocklebur plant response rating ([4]; Rate 125 g/ha, Preemergence): 2
- Plant response rating, Cocklebur ([4]; Rate 250 g/ha, Postemergence): 10
- Plant response rating, Cocklebur ([4]; Rate 250 g/ha, Preemergence): 9
- Plant response rating, Cocklebur ([4]; Rate 500 g/ha, Postemergence): 9
- Plant response rating, Cocklebur ([4]; Rate 500 g/ha, Preemergence): 9
- Plant response rating, Blackgrass ([5]; Rate 62 g/ha, Postemergence): 3
- Blackgrass plant response rating ([5]; Rate 62 g/ha, Preemergence): 4
- Plant response rating, Blackgrass ([5]; Rate 125 g/ha, Postemergence): 8
- Blackgrass plant response rating ([5]; Rate 125 g/ha, Preemergence): 9
- Plant response rating, Blackgrass ([5]; Rate 250 g/ha, Postemergence): 8
- Plant response rating, Blackgrass ([5]; Rate 250 g/ha, Preemergence): 10
- Plant response rating, Blackgrass ([5]; Rate 500 g/ha, Postemergence): 9
- Plant response rating, Blackgrass ([5]; Rate 500 g/ha, Preemergence): 10
- Plant response rating, Rape ([6]; Rate 62 g/ha, Postemergence): 9
- Rape plant response rating ([6]; Rate 62 g/ha, Preemergence): 9
- Plant response rating, Rape ([6]; Rate 125 g/ha, Postemergence): 10
- Rape plant response rating ([6]; Rate 125 g/ha, Preemergence): 9
- Plant response rating, Rape ([6]; Rate 250 g/ha, Postemergence): 10
- Plant response rating, Rape ([6]; Rate 250 g/ha, Preemergence): 10
- Plant response rating, Rape ([6]; Rate 500 g/ha, Postemergence): 10
- Plant response rating, Rape ([6]; Rate 500 g/ha, Preemergence): 10
- Plant response rating, Corn ([7]; Rate 62 g/ha, Postemergence): 3
- Corn plant response rating ([7]; Rate 62 g/ha, Preemergence): 0
- Plant response rating, Corn ([7]; Rate 125 g/ha, Postemergence): 4
- Corn plant response rating ([7]; Rate 125 g/ha, Preemergence): 1
- Plant response rating, Corn ([7]; Rate 250 g/ha, Postemergence): 5
- Plant response rating, Corn ([7]; Rate 250 g/ha, Preemergence): 3
- Plant response rating, Corn ([7]; Rate 500 g/ha, Postemergence): 5
- Plant response rating, Corn ([7]; Rate 500 g/ha, Preemergence): 4
- Plant response rating, Redroot pigweed ([8]; Rate 62 g/ha, Postemergence): 10
- Redroot pigweed plant response rating ([8]; Rate 62 g/ha, Preemergence): 9
- Plant response rating, Redroot pigweed ([8]; Rate 125 g/ha, Postemergence): 10
- Redroot pigweed plant response rating ([8]; Rate 125 g/ha, Preemergence): 10
- Plant response rating, Redroot pigweed ([8]; Rate 250 g/ha, Postemergence): 10
- Plant response rating, Redroot pigweed ([8]; Rate 250 g/ha, Preemergence): 10
- Plant response rating, Redroot pigweed ([8]; Rate 500 g/ha, Postemergence): 10
- Plant response rating, Redroot pigweed ([8]; Rate 500 g/ha, Preemergence): 10
- Plant response rating, Velvetleaf ([9]; Rate 62 g/ha, Postemergence): 10
- Velvetleaf plant response rating ([9]; Rate 62 g/ha, Preemergence): 7
- Plant response rating, Velvetleaf ([9]; Rate 125 g/ha, Postemergence): 10
- Velvetleaf plant response rating ([9]; Rate 125 g/ha, Preemergence): 8
- Plant response rating, Velvetleaf ([9]; Rate 250 g/ha, Postemergence): 10
- Plant response rating, Velvetleaf ([9]; Rate 250 g/ha, Preemergence): 9
- Plant response rating, Velvetleaf ([9]; Rate 500 g/ha, Postemergence): 9
- Plant response rating, Velvetleaf ([9]; Rate 500 g/ha, Preemergence): 9
- Plant response rating, Sugarbeets ([10]; Rate 62 g/ha, Postemergence): 10
- Sugarbeets plant response rating ([10]; Rate 62 g/ha, Preemergence): 9
- Plant response rating, Sugarbeets ([10]; Rate 125 g/ha, Postemergence): 10
- Sugarbeets plant response rating ([10]; Rate 125 g/ha, Preemergence): 10
- Plant response rating, Sugarbeets ([10]; Rate 250 g/ha, Postemergence): 10
- Plant response rating, Sugarbeets ([10]; Rate 250 g/ha, Preemergence): 10
- Plant response rating, Sugarbeets ([10]; Rate 500 g/ha, Postemergence): 9
- Plant response rating, Sugarbeets ([10]; Rate 500 g/ha, Preemergence): 10
- Plant response rating, Morningglory ([11]; Rate 62 g/ha, Postemergence): 10
- Morningglory plant response rating ([11]; Rate 62 g/ha, Preemergence): 8
- Plant response rating, Morningglory ([11]; Rate 125 g/ha, Postemergence): 10
- Morningglory plant response rating ([11]; Rate 125 g/ha, Preemergence): 10
- Plant response rating, Morningglory ([11]; Rate 250 g/ha, Postemergence): 10
- Plant response rating, Morningglory ([11]; Rate 250 g/ha, Preemergence): 10
- Plant response rating, Morningglory ([11]; Rate 500 g/ha, Postemergence): 10
- Plant response rating, Morningglory ([11]; Rate 500 g/ha, Preemergence): 10
- Plant response rating, Soybean ([12]; Rate 62 g/ha, Postemergence): 8
- Soybean plant response rating ([12]; Rate 62 g/ha, Preemergence): 1
- Plant response rating, Soybean ([12]; Rate 125 g/ha, Postemergence): 9
- Soybean plant response rating ([12]; Rate 125 g/ha, Preemergence): 1
- Plant response rating, Soybean ([12]; Rate 250 g/ha, Postemergence): 10
- Plant response rating, Soybean ([12]; Rate 250 g/ha, Preemergence): 2
- Plant response rating, Soybean ([12]; Rate 500 g/ha, Postemergence): 9
- Plant response rating, Soybean ([12]; Rate 500 g/ha, Preemergence): 4
- Plant response rating, Crabgrass ([13]; Rate 62 g/ha, Postemergence): 9
- Crabgrass plant response rating ([13]; Rate 62 g/ha, Preemergence): 9
- Plant response rating, Crabgrass ([13]; Rate 125 g/ha, Postemergence): 9
- Crabgrass plant response rating ([13]; Rate 125 g/ha, Preemergence): 10
- Plant response rating, Crabgrass ([13]; Rate 250 g/ha, Postemergence): 10
- Plant response rating, Crabgrass ([13]; Rate 250 g/ha, Preemergence): 10
- Plant response rating, Crabgrass ([13]; Rate 500 g/ha, Postemergence): 10
- Plant response rating, Crabgrass ([13]; Rate 500 g/ha, Preemergence): 10
- Plant response rating, Bedstraw ([14]; Rate 62 g/ha, Postemergence): 10
- Bedstraw plant response rating ([14]; Rate 62 g/ha, Preemergence): 4
- Plant response rating, Bedstraw ([14]; Rate 125 g/ha, Postemergence): 10
- Bedstraw plant response rating ([14]; Rate 125 g/ha, Preemergence): 7
- Plant response rating, Bedstraw ([14]; Rate 250 g/ha, Postemergence): 10
- Plant response rating, Bedstraw ([14]; Rate 250 g/ha, Preemergence): 10
- Plant response rating, Bedstraw ([14]; Rate 500 g/ha, Postemergence): 10
- Plant response rating, Bedstraw ([14]; Rate 500 g/ha, Preemergence): 9
